Laboratory results taken from patent US20090163476A1, “N-Phenyl Benzamide Derivatives as Sirtuin Modulators” (Sirtris Pharmaceuticals, Inc., priority 2005, published 2009).

Target: T1, SIRT1 (Homo sapiens, UniProt Q96EB6)
T1 sequence (Q96EB6 1-747): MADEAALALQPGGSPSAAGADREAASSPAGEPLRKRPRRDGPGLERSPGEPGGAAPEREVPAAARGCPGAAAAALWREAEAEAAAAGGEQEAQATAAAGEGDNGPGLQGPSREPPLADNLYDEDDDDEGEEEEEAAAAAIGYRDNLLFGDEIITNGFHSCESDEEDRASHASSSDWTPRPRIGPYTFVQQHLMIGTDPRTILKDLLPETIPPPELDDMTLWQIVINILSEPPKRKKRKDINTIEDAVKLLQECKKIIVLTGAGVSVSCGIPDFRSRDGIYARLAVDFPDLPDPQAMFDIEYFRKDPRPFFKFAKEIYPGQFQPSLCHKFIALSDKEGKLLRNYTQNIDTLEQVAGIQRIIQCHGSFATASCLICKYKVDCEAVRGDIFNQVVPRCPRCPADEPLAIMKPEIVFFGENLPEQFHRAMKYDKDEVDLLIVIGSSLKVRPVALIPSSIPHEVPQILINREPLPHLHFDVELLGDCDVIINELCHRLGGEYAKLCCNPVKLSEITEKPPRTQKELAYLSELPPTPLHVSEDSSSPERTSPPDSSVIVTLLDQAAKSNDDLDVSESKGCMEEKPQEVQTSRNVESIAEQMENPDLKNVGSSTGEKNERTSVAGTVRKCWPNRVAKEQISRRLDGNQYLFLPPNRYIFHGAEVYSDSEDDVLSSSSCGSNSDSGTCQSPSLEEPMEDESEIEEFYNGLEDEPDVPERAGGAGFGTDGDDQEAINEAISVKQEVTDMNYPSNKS
Assay: Mass spectrometry based assay of SIRT1 activity
Assay type: biochemical
Design: key to FOLD ACTIVATION MS: A: Fold activation >250%; B: Fold Activation <250%; C: no fold activation
Conditions: for EC50: activation of SIRT1, read-out: ED50 MS
Description: The mass spectrometry based assay utilizes a peptide having 20 amino acid residues as follows: […] The sequence of the peptide substrate is based on p53 with several modifications. […] Test compounds may be added to the reaction as described above. […] After the 25 minute incubation with SIRT1, 10 μL of 10% formic acid is added to stop the reaction. Reactions are sealed and frozen for later mass spec analysis. Determination of the mass of the substrate peptide allows for precise determination of the degree of acetylation (i.e. starting material) as compared to deacetylated peptide (product). […] This timepoint is the same as that used for test compounds and, within the linear range, the endpoint represents a change in velocity. For each of the above assays, SIRT1 protein was expressed and purified as follows. The SirT1 gene was cloned into a T7-promoter containing vector and transformed into BL21(DE3). The protein was expressed by induction with 1 mM IPTG as an N-terminal His-tag fusion protein at 18° C. overnight and harvested at 30,000×g. […] The protein was purified over a Ni-NTA column (Amersham) and fractions containing pure protein were pooled, concentrated and run over a sizing column (Sephadex S200 26/60 global). The peak containing soluble protein was collected and run on an Ion-exchange column (MonoQ). […] This protein was concentrated and dialyzed against dialysis buffer (20 mM Tris-HCl, 2 mM TCEP) overnight. The protein was aliquoted and frozen at −80° C. until further use.

FOLD ACTIVATION MS	EC50 [µM]	SMILES
A (Fold activation >250%)	< 50	COc1cc(C(=O)Nc2cccc(-c3cn4cccc(C)c4n3)c2)cc(OC)c1OC [Compound 131]
B (Fold Activation <250%)	< 50	CN(C)c1cccc(C(=O)Nc2cc(C(=O)N3CCNCC3)cc(-c3nc4ncccc4o3)c2)c1 [Compound 138]
B (Fold Activation <250%)	< 50	COc1cccc(OC)c1C(=O)Nc1cccc(-c2nc3ccccc3o2)c1 [Compound 119]
A (Fold activation >250%)	< 50	COc1ccc(C(=O)Nc2cccc(-c3nc4ccncc4s3)c2)cc1OC [Compound 114]
–	> 150	COc1ccc(C(=O)Nc2cc(C(=O)O)cc(-c3nc4ncccc4o3)c2)cc1OC [Compound 137]
B (Fold Activation <250%)	< 50	COc1ccc(C(=O)Nc2cccc(-c3nc4ccccc4s3)c2)c(OC)c1 [Compound 124]
B (Fold Activation <250%)	< 50	CN(C)c1cccc(C(=O)Nc2cccc(-c3nc4cccnc4o3)c2)c1 [Compound 111]
A (Fold activation >250%)	< 50	COc1cc(C(=O)Nc2cccc(-c3nc4ccncc4s3)c2)cc(OC)c1OC [Compound 115]
–	> 150	COc1ccc(C(=O)Nc2cccc(-c3nc4ncccc4o3)c2)cc1 [Compound 54]
B (Fold Activation <250%)	< 50	COc1ccc(C(=O)Nc2cc(C(=O)N3CCNCC3)cc(-c3nc4ncccc4o3)c2)cc1OC [Compound 164]
B (Fold Activation <250%)	< 50	COc1ccc(C(=O)Nc2cccc(-c3nc4cccnc4o3)c2)cc1OC [Compound 112]
A (Fold activation >250%)	< 50	COc1cc(C(=O)Nc2cccc(-c3cn4ccc(C)cc4n3)c2)cc(OC)c1OC [Compound 129]
B (Fold Activation <250%)	< 50	COC(=O)c1cc(NC(=O)c2cc(OC)c(OC)c(OC)c2)cc(-c2nc3ccncc3s2)c1 [Compound 133, methyl 3-(thiazolo[5,4-c]pyridin-2-yl)-5-(3,4,5-trimethoxybenzamido)benzoate]
B (Fold Activation <250%)	< 50	COc1ccc(C(=O)Nc2cccc(-c3cn4ccc(C)cc4n3)c2)cc1 [Compound 130]
A (Fold activation >250%)	< 50	COc1ccccc1C(=O)Nc1cccc(-c2cn3ccsc3n2)c1 [Compound 132]
C	> 150	COc1cccc(C(=O)Nc2cccc(-c3nc4cc(Cl)cc(Cl)c4o3)c2)c1 [Compound 121]

FOLD ACTIVATION MS	EC50 [µM]	SMILES
A (Fold activation >250%)	< 50	COc1cc(C(=O)Nc2cccc(-c3nc4ccc(C)cc4o3)c2)cc(OC)c1OC [Compound 127]
B (Fold Activation <250%)	51 to 100	COc1cc(C(=O)Nc2cccc(-c3nc4ccccc4c(=O)o3)c2)cc(OC)c1OC [Compound 125]
A (Fold activation >250%)	< 50	COc1cc(C(=O)Nc2cccc(-c3cn4ccsc4n3)c2)cc(OC)c1OC [Compound 118]
B (Fold Activation <250%)	< 50	COc1ccc(C(=O)Nc2cc(C(=O)N3CCNCC3)cc(-c3nc4ncccc4o3)c2)c(OC)c1 [Compound 139]
B (Fold Activation <250%)	< 50	COc1cc(C(=O)Nc2cc(CO)cc(-c3nc4ccncc4s3)c2)cc(OC)c1OC [Compound 135]
–	101 to 150	COc1ccc(C(=O)Nc2cccc(-c3cnc4ccccc4n3)c2)cc1OC [Compound 116]
–	> 150	O=C(Nc1cccc(-c2nc3ncccc3o2)c1)c1cccc(OC(F)(F)F)c1 [Compound 50]
B (Fold Activation <250%)	< 50	CN(C)c1cccc(C(=O)Nc2cccc(-c3nc4ccncc4s3)c2)c1 [Compound 113]
B (Fold Activation <250%)	< 50	O=C(Nc1cccc(-c2nc3ncccc3o2)c1)c1ccccc1N1CCOCC1 [Compound 109]
A (Fold activation >250%)	< 50	COc1ccc(C(=O)Nc2cccc(-c3nc4cc(C)ccc4[nH]3)c2)cc1OC [Compound 117]
–	101 to 150	COc1ccc(C(=O)Nc2cccc(-c3nc4ncccc4o3)c2)cc1Cl [Compound 110]
B (Fold Activation <250%)	< 50	COc1ccc(C(=O)Nc2cccc(-c3cn4ccc(C)cc4n3)c2)c(OC)c1 [Compound 128]
–	101 to 150	COc1ccc(C(=O)Nc2cccc(-c3nc4cc(C(C)C)ccc4o3)c2)cc1OC [Compound 122]
B (Fold Activation <250%)	< 50	COc1cccc(OC)c1C(=O)Nc1cccc(-c2nc3ccccc3[nH]2)c1 [Compound 126]
B (Fold Activation <250%)	< 50	COc1cc(C(=O)Nc2cc(C(=O)O)cc(-c3nc4ccncc4s3)c2)cc(OC)c1OC [Compound 134, 3-(thiazolo[5,4-c]pyridin-2-yl)-5-(3,4,5-trimethoxybenzamido)benzoic acid]
